The target of one test is Meprin B. Briefly: inhibition of MMP and meprin peptide cleavage – biochemical, QFRET, MMP1/2/8/9/10/13/14, Meprin A/B, selectivity assay for ADAM10 and ADAM17 inhibitor project, late-stage follow-up (AID 743473). Conditions: MCA fluorescence, metalloprotease panel.
Take `O=C1NC(=O)C(Cc2ccc(Cl)cc2)(c2ccccc2)N1` (stereo unspecified): the IC50 was above 100 µM.
The compound `CCOc1ccc(NC(=O)CC2SC(=O)N(c3ccccc3)C2=O)cc1` (stereo unspecified) registered an IC50 above 100 µM.
In turn, `O=C(O)CCC(=O)c1c[nH]c2ccccc12` registered an IC50 above 100 µM.
The same measure, in the same setting: with `COc1cccc(C(=O)NNC(=O)C(=O)Nc2ccc(C)c(Cl)c2)c1` the figure was above 100 µM.

A further test deals with MMP9. Described as above. The note with it: MCA fluorescence, metalloprotease panel.
Compound `O=C1NC(=O)C(Cc2ccc(Cl)cc2)(c2ccccc2)N1` (stereo unspecified) showed an IC50 above 100 µM.
The same measure, in the same setting: with `CCOc1ccc(NC(=O)CC2SC(=O)N(c3ccccc3)C2=O)cc1` (stereo unspecified) the figure was 3 µM; with `O=C(O)CCC(=O)c1c[nH]c2ccccc12`, above 100 µM; with `COc1cccc(C(=O)NNC(=O)C(=O)Nc2ccc(C)c(Cl)c2)c1`, above 100 µM.

For another test, the target named is MMP8. Described as above. Conditions: MCA fluorescence, metalloprotease panel.
The compound `O=C1NC(=O)C(Cc2ccc(Cl)cc2)(c2ccccc2)N1` (stereo unspecified) gave an IC50 of 6.4 µM.
The same measure, in the same setting: in the case of `CCOc1ccc(NC(=O)CC2SC(=O)N(c3ccccc3)C2=O)cc1` (stereo unspecified) it was 1.6 µM; in that of `O=C(O)CCC(=O)c1c[nH]c2ccccc12`, above 100 µM; in that of `COc1cccc(C(=O)NNC(=O)C(=O)Nc2ccc(C)c(Cl)c2)c1`, above 100 µM.

The target in the next test is MMP2. Described as above. Conditions: MCA fluorescence, metalloprotease panel.
`O=C1NC(=O)C(Cc2ccc(Cl)cc2)(c2ccccc2)N1` (stereo unspecified): the IC50 is above 100 µM.
Consider `CCOc1ccc(NC(=O)CC2SC(=O)N(c3ccccc3)C2=O)cc1` (stereo unspecified), for which the IC50 stood at 4.7 µM.
The same measure, in the same setting: in the case of `O=C(O)CCC(=O)c1c[nH]c2ccccc12` it was above 100 µM; in that of `COc1cccc(C(=O)NNC(=O)C(=O)Nc2ccc(C)c(Cl)c2)c1`, above 100 µM.

The target of another test is MMP10. The description is as above. Conditions: MCA fluorescence, metalloprotease panel.
Turning to `O=C1NC(=O)C(Cc2ccc(Cl)cc2)(c2ccccc2)N1` (stereo unspecified), the IC50 was above 100 µM.
Still for that read-out and setting: with `CCOc1ccc(NC(=O)CC2SC(=O)N(c3ccccc3)C2=O)cc1` (stereo unspecified) the figure was 28.6 µM.
Same read-out and setting: with `O=C(O)CCC(=O)c1c[nH]c2ccccc12` the figure was above 100 µM; with `COc1cccc(C(=O)NNC(=O)C(=O)Nc2ccc(C)c(Cl)c2)c1`, above 100 µM.

Another test has as its target MMP14. The test is described as above. Conditions: MCA fluorescence, metalloprotease panel.
The compound `O=C1NC(=O)C(Cc2ccc(Cl)cc2)(c2ccccc2)N1` (stereo unspecified) yielded an IC50 above 100 µM.
As to `CCOc1ccc(NC(=O)CC2SC(=O)N(c3ccccc3)C2=O)cc1` (stereo unspecified), the IC50 was found to be 36.9 µM.
On the same count and under the same terms, with `O=C(O)CCC(=O)c1c[nH]c2ccccc12` the figure was above 100 µM.
The same measure, in the same setting: in the case of `COc1cccc(C(=O)NNC(=O)C(=O)Nc2ccc(C)c(Cl)c2)c1` it was above 100 µM.

The target of another test is MMP1. The description is as above. Conditions: MCA fluorescence, metalloprotease panel.
Turning to `O=C1NC(=O)C(Cc2ccc(Cl)cc2)(c2ccccc2)N1` (stereo unspecified), the IC50 was found to be 18.5 µM.
Same read-out and setting: in the case of `CCOc1ccc(NC(=O)CC2SC(=O)N(c3ccccc3)C2=O)cc1` (stereo unspecified) it was 75 µM.
The same measure, in the same setting: with `O=C(O)CCC(=O)c1c[nH]c2ccccc12` the figure was above 100 µM.
On the same count and under the same terms, in the case of `COc1cccc(C(=O)NNC(=O)C(=O)Nc2ccc(C)c(Cl)c2)c1` it was above 100 µM.

The target of the next test is Meprin A. The description is as above. The note with it: MCA fluorescence, metalloprotease panel.
On to `O=C1NC(=O)C(Cc2ccc(Cl)cc2)(c2ccccc2)N1` (stereo unspecified), for which the IC50 is above 100 µM.
Same read-out and setting: with `CCOc1ccc(NC(=O)CC2SC(=O)N(c3ccccc3)C2=O)cc1` (stereo unspecified) the figure was above 100 µM; with `O=C(O)CCC(=O)c1c[nH]c2ccccc12`, above 100 µM.
In turn, `COc1cccc(C(=O)NNC(=O)C(=O)Nc2ccc(C)c(Cl)c2)c1` yielded an IC50 above 100 µM.

In a further test the target is Collagenase 3 (Homo sapiens) (UniProt P45452). Described as above. Conditions: MCA fluorescence, metalloprotease panel, MMP13.
Consider `O=C1NC(=O)C(Cc2ccc(Cl)cc2)(c2ccccc2)N1` (stereo unspecified), for which the IC50 is above 100 µM.
Still for that read-out and setting: with `CCOc1ccc(NC(=O)CC2SC(=O)N(c3ccccc3)C2=O)cc1` (stereo unspecified) the figure was 35.8 µM; with `O=C(O)CCC(=O)c1c[nH]c2ccccc12`, above 100 µM; with `COc1cccc(C(=O)NNC(=O)C(=O)Nc2ccc(C)c(Cl)c2)c1`, above 100 µM.

The IC50 is the concentration needed to halve the response being measured.

(Values after PubChem BioAssay AID743473 (The Scripps Research Institute Molecular Screening Center, 2014).)
